Active and inactive are the calls of the source. No cut-off for these calls is given here. Residues, ends and D or L forms follow the SMILES beside them. *: point of attachment. Palmitoyl = CCCCCCCCCCCCCCCC(=O)*
Key:
Type in all cases: functional, cell-based
[1] = target: Sphingosine 1-phosphate receptor Edg-5/Sphingosine 1-phosphate receptor Edg-3 (Homo sapiens) (UniProt O95136+Q99500); experiment: Agonist activity at S1P2/3 receptor in HEK293 cells assessed as inhibition of forskolin-induced cAMP level after 1 hr by alphascreen immunoassay
Apelin receptor = target: T1, Apelin receptor (Homo sapiens, UniProt P35414); experiment: Agonist activity at APJ receptor in HEK293 cells assessed as inhibition of forskolin-induced cAMP level incubated for 5 mins prior to forskolin challenge measured after 30 mins by TR-FRET assay
T1 sequence (P35414 whole entry): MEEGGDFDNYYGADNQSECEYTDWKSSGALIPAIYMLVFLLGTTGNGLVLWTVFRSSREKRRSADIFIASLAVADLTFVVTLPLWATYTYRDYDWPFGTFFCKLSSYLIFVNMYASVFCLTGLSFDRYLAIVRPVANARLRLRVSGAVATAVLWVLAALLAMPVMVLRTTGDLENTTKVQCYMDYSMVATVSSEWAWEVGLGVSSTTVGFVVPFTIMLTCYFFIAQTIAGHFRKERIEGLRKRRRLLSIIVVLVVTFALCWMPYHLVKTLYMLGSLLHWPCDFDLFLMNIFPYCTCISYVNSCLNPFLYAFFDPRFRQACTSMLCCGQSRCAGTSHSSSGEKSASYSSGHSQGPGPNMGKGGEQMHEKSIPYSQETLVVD

[2] = target: T2, Apelin receptor (Homo sapiens) (UniProt P35414); experiment: Agonist activity at APJ receptor in HEK293 cells assessed as inhibition of forskolin-induced cAMP level incubated for 5 mins prior to forskolin challenge measured after 30 mins by TR-FRET assay relative to [pyr1]-apelin-13
T2 sequence (whole entry): T1 sequence (P35414 whole entry)

| SMILES | EC50 (Apelin receptor) [µM] | %max [2] [%] | Activity [1] |
| --- | --- | --- | --- |
| CCCCCCCCCCCCC/C=C/[C@@H](O)[C@@H](N)COP(=O)(O)O | – | – | Active |
| CCCCCCCCCCCCCCCC(=O)N[C@H](C(=O)N[C@@H](C)C(=O)N[C@@H](CC(C)C)C(=O)N1CCC[C@H]1C(=O)N[C@@H](CC(C)C)C(=O)N[C@@H](Cc1c[nH]c2ccccc12)C(=O)N[C@@H](C)C(=O)N[C@H](C(=O)N[C@@H](Cc1ccc(O)cc1)C(=O)N[C@H](C(=O)N[C@@H](Cc1ccc(O)cc1)C(=O)N[C@@H](CCCNC(=N)N)C(N)=O)[C@@H](C)O)[C@@H](C)O)C(C)C (Palmitoyl-VALPLWATYTYR-NH2) | 0.0413 | 45 | – |
| CCCCCCCCCCCCCCCC(=O)N[C@H](C(=O)N[C@H](C(=O)N[C@@H](CC(C)C)C(=O)N1CCC[C@H]1C(=O)N[C@@H](CC(C)C)C(=O)N[C@@H](Cc1c[nH]c2ccccc12)C(=O)N[C@@H](C)C(=O)N[C@@H](C)C(=O)N[C@@H](Cc1ccc(O)cc1)C(=O)N[C@H](C(=O)N[C@@H](Cc1ccc(O)cc1)C(=O)N[C@@H](CCCNC(=N)N)C(N)=O)[C@@H](C)O)[C@@H](C)O)C(C)C (Palmitoyl-VTLPLWAAYTYR-NH2) | 0.0215 | 53.6 | – |
| CCCCCCCCCCCCCCCC(=O)N[C@H](C(=O)N[C@H](C(=O)N[C@@H](CC(C)C)C(=O)N1CCC[C@H]1C(=O)N[C@@H](CC(C)C)C(=O)N[C@@H](Cc1c[nH]c2ccccc12)C(=O)N[C@@H](C)C(=O)N[C@H](C(N)=O)[C@@H](C)O)[C@@H](C)O)C(C)C (Palmitoyl-VTLPLWAT-NH2) | > 30 | – | – |
| CCCCCCCCCCCCCCCC(=O)N[C@H](C(=O)N[C@H](C(=O)N[C@@H](CC(C)C)C(=O)N1CCC[C@H]1C(=O)N[C@@H](CC(C)C)C(=O)N[C@@H](Cc1c[nH]c2ccccc12)C(=O)N[C@@H](C)C(=O)N[C@H](C(=O)N[C@@H](C)C(=O)N[C@H](C(=O)N[C@@H](Cc1ccc(O)cc1)C(=O)N[C@@H](CCCNC(=N)N)C(N)=O)[C@@H](C)O)[C@@H](C)O)[C@@H](C)O)C(C)C (Palmitoyl-VTLPLWATATYR-NH2) | 0.0957 | 84.3 | – |
| CCCCCCCCCCCCCCCC(=O)N[C@H](C(=O)N[C@H](C(=O)N[C@@H](CC(C)C)C(=O)N1CCC[C@H]1C(=O)N[C@@H](CC(C)C)C(=O)N[C@@H](Cc1c[nH]c2ccccc12)C(=O)N[C@@H](C)C(=O)N[C@H](C(=O)N[C@@H](Cc1ccc(O)cc1)C(=O)N[C@@H](C)C(=O)N[C@@H](Cc1ccc(O)cc1)C(=O)N[C@@H](CCCNC(=N)N)C(N)=O)[C@@H](C)O)[C@@H](C)O)C(C)C (Palmitoyl-VTLPLWATYAYR-NH2) | > 30 | – | – |

Continued, in another order:

| EC50 (Apelin receptor) [µM] | %max [2] [%] | SMILES | Activity [1] |
| --- | --- | --- | --- |
| > 30 | – | CCCCCCCCCCCCCCCC(=O)N1CCC[C@H]1C(=O)N[C@@H](CC(C)C)C(=O)N[C@@H](Cc1c[nH]c2ccccc12)C(=O)N[C@@H](C)C(=O)N[C@H](C(=O)N[C@@H](Cc1ccc(O)cc1)C(=O)N[C@H](C(=O)N[C@@H](Cc1ccc(O)cc1)C(=O)N[C@@H](CCCNC(=N)N)C(N)=O)[C@@H](C)O)[C@@H](C)O (Palmitoyl-PLWATYTYR-NH2) | – |
| > 30 | – | CCCCCCCCCCCCCCCC(=O)N[C@H](C(=O)N[C@H](C(=O)N[C@@H](C)C(=O)N1CCC[C@H]1C(=O)N[C@@H](CC(C)C)C(=O)N[C@@H](Cc1c[nH]c2ccccc12)C(=O)N[C@@H](C)C(=O)N[C@H](C(=O)N[C@@H](Cc1ccc(O)cc1)C(=O)N[C@H](C(=O)N[C@@H](Cc1ccc(O)cc1)C(=O)N[C@@H](CCCNC(=N)N)C(N)=O)[C@@H](C)O)[C@@H](C)O)[C@@H](C)O)C(C)C (Palmitoyl-VTAPLWATYTYR-NH2) | – |
| > 30 | – | CCCCCCCCCCCCCCCC(=O)N[C@H](C(=O)N[C@H](C(=O)N[C@@H](CC(C)C)C(=O)N[C@@H](C)C(=O)N[C@@H](CC(C)C)C(=O)N[C@@H](Cc1c[nH]c2ccccc12)C(=O)N[C@@H](C)C(=O)N[C@H](C(=O)N[C@@H](Cc1ccc(O)cc1)C(=O)N[C@H](C(=O)N[C@@H](Cc1ccc(O)cc1)C(=O)N[C@@H](CCCNC(=N)N)C(N)=O)[C@@H](C)O)[C@@H](C)O)[C@@H](C)O)C(C)C (Palmitoyl-VTLALWATYTYR-NH2) | – |
| > 30 | – | CCCCCCCCCCCCCCCC(=O)N[C@H](C(=O)N[C@H](C(=O)N[C@@H](CC(C)C)C(=O)N1CCC[C@H]1C(=O)N[C@@H](C)C(=O)N[C@@H](Cc1c[nH]c2ccccc12)C(=O)N[C@@H](C)C(=O)N[C@H](C(=O)N[C@@H](Cc1ccc(O)cc1)C(=O)N[C@H](C(=O)N[C@@H](Cc1ccc(O)cc1)C(=O)N[C@@H](CCCNC(=N)N)C(N)=O)[C@@H](C)O)[C@@H](C)O)[C@@H](C)O)C(C)C (Palmitoyl-VTLPAWATYTYR-NH2) | – |
| > 30 | – | CCCCCCCCCCCCCCCC(=O)N[C@H](C(=O)N[C@H](C(=O)N[C@@H](CC(C)C)C(=O)N1CCC[C@H]1C(=O)N[C@@H](CC(C)C)C(=O)N[C@@H](C)C(=O)N[C@@H](C)C(=O)N[C@H](C(=O)N[C@@H](Cc1ccc(O)cc1)C(=O)N[C@H](C(=O)N[C@@H](Cc1ccc(O)cc1)C(=O)N[C@@H](CCCNC(=N)N)C(N)=O)[C@@H](C)O)[C@@H](C)O)[C@@H](C)O)C(C)C (Palmitoyl-VTLPLAATYTYR-NH2) | – |
| 0.0027 | 62.5 | CCCCCCCCCCCCCCCC(=O)N[C@H](C(=O)N[C@H](C(=O)N[C@@H](CC(C)C)C(=O)N1CCC[C@H]1C(=O)N[C@@H](CC(C)C)C(=O)N[C@@H](Cc1c[nH]c2ccccc12)C(=O)N[C@@H](C)C(=O)N[C@H](C(=O)N[C@@H](Cc1ccc(O)cc1)C(=O)N[C@H](C(=O)N[C@@H](C)C(=O)N[C@@H](CCCNC(=N)N)C(N)=O)[C@@H](C)O)[C@@H](C)O)[C@@H](C)O)C(C)C (Palmitoyl-VTLPLWATYTAR-NH2) | – |

Source: ChEMBL document CHEMBL3352267, “The design and implementation of a generic lipopeptide scanning platform to enable the identification of 'locally acting' agonists for the apelin receptor” (Bioorg Med Chem Lett, 2014)
